Measurements as given in patent US8962621B2 (Shanghai Institute of Pharmaceutical Industry, priority 2010, dated 2015).

Columns and labels:
male ICR mice = assay: Mice tail suspension test; type: in vivo
Description: Through intragastric administration, 10 mL·kg^−1 of each sample (physiological saline for the blank control group) is administrated. After 1 h of the treatment, the mouse is held with a medical tape at a position around 2 cm from the tip of its tail and hung upside-down in the suspension cage with its head 5 cm away from the bottom of the cage. The observation starts right after the mouse is suspended for 2 min and continues for 4 min. The time during which the mouse is immobile (no struggling or only tiny movements of its body/limbs) in this 4 min is accumulated (IT, immobility time). The percentage of the improvement is calculated according to the equation: Improvement %=[IT (blank control group)−IT (compound treatment group)]/IT (blank control group)×100%

male Kunming mice = assay: Mice forced swimming test; type: in vivo
Description: Through intragastric administration, 10 mL·kg^−1 of each sample (physiological saline for the blank control group) is administrated. The mice are pre-screened for swimming one day before the actual test. The mouse is placed into water (25° C., 10 cm deep) in a glass tank (height 20 cm, diameter 14 cm) and forced to swim for 6 min. Those who stop swimming at around 70-160 s are chosen for the actual test which starts 24 h later. After 1 h of the administration, the forced swimming test is performed by placing the animal into the above-mentioned environment to swim for 6 min. The accumulative immobility time for the last 4 min is recorded. Data is statistically analyzed with t-test.

5-HT reuptake = assay: 5-Hydroxytryptophan (DL-5-HTP) potentiation in mice (head twitches); type: in vivo; settings: for Frequency of head twitches 0 (number of mice) / Frequency of head twitches I (number of mice) / Frequency of head twitches II (number of mice) / Frequency of head twitches III (number of mice): Pargyline 75 mg/kg s.c., DL-5-HTP i.v.
From the text: (§1) Tests of the 5-hydroxytryptophan (DL-5-HTP) potentiation in mice, Yohimbine toxicity enhancement in mice and oxidation tremors can verify a compound's inhibition effect on 5-HT, NA and DA reuptake. Compound VI-2 is selected for the tests.
a) Principles • Taking DL-5-HTP as the precursor of 5-HT, the MAOs inhibitor Pargyline can inhibit the enzymatic degradation […]. While in mice, characteristic symptoms—head twitches can be observed.
b) Test Method • Three different dosages of VI-2 are used: 30, 15 and 7.5 mg/kg. The mouse is treated as follows: first, intraperitoneal injection of the compound, 0.2 mL/10 g; 30 min later, subcutaneous injection of Pargyline, 75 mg/kg; and 90 min later, intraveneous injection of DL-5-HTP. The induced head twitches of the mouse are observed 15 min later.

DA reuptake = assay: Oxidation tremor test (oxotremorine-induced tremors); type: in vivo, mice
From the text: as §1
a) Principles • The pathogenesis of paralysis agitans is primarily related to the imbalance between DA function and Ach function. […] If the same function can be exerted in vivo, VI-2 will be able to partially antagonize the symptoms induced by an M receptor agonist.
b) Test Method • This test consists of 6 experimental groups: Model control group, VI-2-1 (300 mg/kg) group, VI-2-2 (200 mg/kg) group, VI-2-3 (120 mg/kg) group, VI-2-4 (60 mg/kg) group and VI-2-5 (30 mg/kg) group. For each VI-2 group, the compound at the corresponding dosage is administrated orally, or as in the case of the Model control group, N.S is given to the animals. One hour after the treatment, oxotremorine (0.5 mg/kg, 0.1 mL/10 g) is administrated by intraperitoneal injection to the mice in all groups. Responses of the mice are observed.

rats = assay: Learned helplessness experiment (conditioned avoidance test); type: in vivo; settings: for Incubation period of escape / Number of times of successful avoidance: one week, test 24 h after last administration, n = 10
From the text: (1) Principles • This is an animal model of depression. In this experiment, an animal is placed under conditions with aversive stimulus which it can't escape. […] This is a well recognized depression state, in which the level of catecholamine in the animal's brain is reduced. An antidepressant can act against this state. The learned helplessness model is sensitive to a variety of antidepressants used in a sub-long period (3-7 d), including tricyclic antidepressants, monoamine oxidase inhibitors, monoamine reuptake inhibitors and atypical antidepressants.
(2) Test Method • The animals are grouped. The pre-shock animals are generated the first day by performing inescapable electric shock. The pre-shock animals are given foot electric shock (0.8 mA, 15 s) for 60 times (1 min interval). Rats in the control group are only put into the cage for a same period of time but without any electric shock. • The administration of drugs starts the next day and lasts for one week. […] The conditioned avoidance test is conducted 24 h after the last administration to determine the number of times of successful avoidance and the incubation period of escape.

[1] = Acute toxicity experiment (single oral gavage); settings: mouse, in vivo, po
NA Transporter (hNAT) = NA Transporter (hNAT) (Homo sapiens, UniProt P23975); assay: Inhibition of [3H]-NA reuptake in HEK 293 cells stably expressing hNAT; settings: HEK293, read-out: NA Reuptake Inhibition
Sequence of NA Transporter (hNAT) (P23975 whole entry): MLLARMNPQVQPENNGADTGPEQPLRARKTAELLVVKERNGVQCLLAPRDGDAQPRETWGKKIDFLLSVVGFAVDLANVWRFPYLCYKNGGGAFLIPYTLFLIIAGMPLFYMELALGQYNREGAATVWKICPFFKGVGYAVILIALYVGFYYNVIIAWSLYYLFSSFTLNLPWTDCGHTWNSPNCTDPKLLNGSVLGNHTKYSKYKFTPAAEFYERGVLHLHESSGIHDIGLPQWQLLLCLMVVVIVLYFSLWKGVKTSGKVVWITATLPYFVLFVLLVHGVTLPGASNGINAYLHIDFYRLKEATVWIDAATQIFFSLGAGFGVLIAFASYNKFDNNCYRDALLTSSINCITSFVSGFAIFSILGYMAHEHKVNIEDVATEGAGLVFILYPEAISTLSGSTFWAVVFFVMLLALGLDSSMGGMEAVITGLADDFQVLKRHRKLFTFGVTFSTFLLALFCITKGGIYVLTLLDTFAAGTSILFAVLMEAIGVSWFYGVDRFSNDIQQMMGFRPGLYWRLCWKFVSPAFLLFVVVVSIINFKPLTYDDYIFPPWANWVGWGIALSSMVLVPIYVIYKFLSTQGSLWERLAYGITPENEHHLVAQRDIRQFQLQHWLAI

5-HT Transporter (hSERT) = 5-HT Transporter (hSERT) (Homo sapiens, UniProt P31645); assay: Inhibition of [3H]-5-HT reuptake in HEK 293 cells stably expressing hSERT;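 further: compound preincubated 10 min at 30 °C, then 10 min uptake, filter-bound radioactivity counted by scintillation, inhibition relative to total (blank) minus non-specific (positive control) uptake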
Sequence of 5-HT Transporter (hSERT) (P31645 whole entry): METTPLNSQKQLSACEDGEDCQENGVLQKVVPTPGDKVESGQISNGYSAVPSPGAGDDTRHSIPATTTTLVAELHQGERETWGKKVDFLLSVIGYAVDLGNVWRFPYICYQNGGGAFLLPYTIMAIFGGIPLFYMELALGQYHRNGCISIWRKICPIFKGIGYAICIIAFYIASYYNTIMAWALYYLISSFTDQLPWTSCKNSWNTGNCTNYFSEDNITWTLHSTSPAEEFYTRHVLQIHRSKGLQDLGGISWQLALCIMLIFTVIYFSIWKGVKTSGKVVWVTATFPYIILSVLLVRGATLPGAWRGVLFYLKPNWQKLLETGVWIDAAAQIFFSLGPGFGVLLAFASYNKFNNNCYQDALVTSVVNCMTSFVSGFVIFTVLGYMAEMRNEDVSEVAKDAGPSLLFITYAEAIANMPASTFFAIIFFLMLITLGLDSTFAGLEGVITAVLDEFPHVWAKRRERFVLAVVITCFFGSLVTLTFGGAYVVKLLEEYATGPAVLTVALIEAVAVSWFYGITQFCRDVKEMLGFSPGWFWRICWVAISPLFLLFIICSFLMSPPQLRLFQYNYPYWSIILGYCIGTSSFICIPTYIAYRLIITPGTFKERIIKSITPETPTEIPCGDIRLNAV

[2] = Venlafaxine 30 mg/kg, VI-2 at 3 doses (20, 10, 5 mg/kg)

With `CN(C)CCC(c1ccc(Cl)c(Cl)c1)N1CCCC1` (centres unmarked) [VI-2, N,N-dimethyl-3-(3,4-dichlorophenyl)-3-(pyrrolidin-1-yl)-propylamine] the “IT (sec), immobility time” value (male ICR mice; 20.0 mg/kg single intragastric administration, 1 h before test, 4 min observation, n=12) was 36.19 ± 25.78 s, the “Improvement (%)” value (male ICR mice; 20.0 mg/kg single oral administration, versus blank control IT) was 63.52% and the “effect on immobility time in the tail suspension test (in words)” value (male ICR mice; 20 mg/kg, efficacy similar to Venlafaxine) was “significant reduction in the immobility time”. The “effect in the forced swimming test (in words)” value (male Kunming mice; 20 mg/kg) was “significant reduction in the immobility time”, the “IT (sec), immobility time” value (male Kunming mice; 20.0 mg/kg single intragastric administration, 1 h before test, last 4 min of 6 min, n=12) was 74.9 ± 37.8 s and the “Frequency of head twitches 0 (number of mice)” value (5-HT reuptake; 7.5 mg/kg intraperitoneal) was 1. For the same compound, the “Frequency of head twitches I (number of mice)” value (5-HT reuptake; 7.5 mg/kg intraperitoneal) was 3, the “Frequency of head twitches II (number of mice)” value (5-HT reuptake; 7.5 mg/kg intraperitoneal) was 6 and the “Frequency of head twitches III (number of mice)” value (“Frequency of head twitches III” below) (5-HT reuptake; 7.5 mg/kg intraperitoneal) was 0. The “Frequency of head twitches 0 (number of mice)” value (5-HT reuptake; 15 mg/kg intraperitoneal) was 0, the “Frequency of head twitches I (number of mice)” value (5-HT reuptake; 15 mg/kg intraperitoneal) was 0 and the “Frequency of head twitches II (number of mice)” value (5-HT reuptake; 15 mg/kg intraperitoneal) was 4. The “Frequency of head twitches III” value (5-HT reuptake; 15 mg/kg intraperitoneal) was 6, the “Frequency of head twitches 0 (number of mice)” value (5-HT reuptake; 30 mg/kg intraperitoneal) was 0 and the “Frequency of head twitches I (number of mice)” value (5-HT reuptake; 30 mg/kg intraperitoneal) was 0. For the same compound, the “Frequency of head twitches II (number of mice)” value (5-HT reuptake; 30 mg/kg intraperitoneal) was 0, the “Frequency of head twitches III” value (5-HT reuptake; 30 mg/kg intraperitoneal) was 10 and the “enhancement of the effect of 5-HTP (in words)” value (5-HT reuptake; 30, 15 and 7.5 mg/kg, significant dose-effect relationship) was “significantly enhance the effect of 5-HTP”. The “anti-tremor effect (in words)” value (DA reuptake; 30 mg/kg oral, oxotremorine 0.5 mg/kg i.p. 1 h later) was “No anti-tremor effect is observed”, the “Side overturn (in words)” value (DA reuptake; 120 mg/kg or lower) was “rarely observed” and the “Side overturn (in words)” value (DA reuptake; 300 mg/kg and 200 mg/kg oral) was “Side overturn of different extent is observed”. For the same compound, the “Activity of the mice (in words)” value (DA reuptake; 300→200→120→60→30 mg/kg = Model) was “The best activity of the mice is observed in the 300 mg/kg group”, the “intensity of tremors versus dose (in words)” value (DA reuptake; Model→30→60→120→200→300 mg/kg from high to low) was “Clear dose-effect relationship is observed” and the “antagonism of the tremor symptom (in words)” value (DA reuptake; by enhancing the function of DA) was “can partially antagonize the tremor symptom”. The “doses giving improvement of tremor (in words)” value (DA reuptake; oral 30-300 mg/kg, oxotremorine 0.5 mg/kg i.p.) was “An improvement is only observed at doses up to 120 mg/kg”, the “enhancement of DA function at therapeutic doses (in words)” value (DA reuptake; therapeutic doses (10-20 mg/kg)) was “no such enhancement” and the “Incubation period of escape” value (rats; 5 mg/kg) was 140.3 ± 195.44 s. The “Number of times of successful avoidance” value (rats; 5 mg/kg) was 21.2 ± 6.73, the “Incubation period of escape” value (rats; 10 mg/kg) was 188.3 ± 178.38 s and the “Number of times of successful avoidance” value (rats; 10 mg/kg) was 19.5 ± 8.83. The “Incubation period of escape” value (rats; 20 mg/kg) was 171.1 ± 159.69 s, the “Number of times of successful avoidance” value (rats; 20 mg/kg) was 18.9 ± 9.35 and the “incubation period of escape (in words)” value (rats; [2]) was “significantly shortened incubation period of escape”. For the same compound, the “times of successful avoidance (in words)” value (rats; [2]) was “relatively more times of successful avoidance”, the LD50 [1] was 950 mg/kg and the inhibition at 10 µM (NA Transporter (hNAT)) was 100%. For the same compound, the “inhibition effect towards the reuptake of 5-HT (in words)” value (5-HT Transporter (hSERT)) was “relatively strong inhibition effect” and the inhibition at 10 µM (5-HT Transporter (hSERT); HEK293, read-out: 5-HT Reuptake Inhibition) was 94.8%.
